According to patent US8487006B2, “Method of enhancing TGF-β signalling” (Auxagen, Inc., priority 2008, dated 2013):

How the values were obtained:
[1] = test system: PAI-1 expression in bovine aortic endothelial cells (BAEC cells); test: TGF-β-stimulated expression of PAI-1 in BAEC cells; assay type: cell-based; conditions: dynasore 50 μM; BAEC cells (unpublished results)
Protocol: (§1) We hypothesize that TGF-β enhancers such as inhibitors of clathrin-dependent endocytosis may ameliorate atherosclerosis caused by cholesterol-induced suppression of TGF-β responsiveness in vascular cells^3,12. To test our hypothesis, we treated hypercholesterolemic ApoE-null mice with dynasore (1 mg/kg body weight) via intraperitoneal administration every two days for 8 weeks. We chose dynasore for two reasons. […] At 50 μM, it enhances TGF-β-stimulated expression of PAI-1 in these cell types by ˜4-5 fold, 2) Dynasore is the only inhibitor tested which alone is capable of stimulating PAI-1 expression. […] The plasma levels of cholesterol in wild-type mice treated with either vehicle only or dynasore were 120±10 and 125±20 mg/dl, respectively.

wild-type mice = test: Wild-type mice treated with dynasore (organ pathology, coronary artery histology, TβR-II staining, plasma cholesterol); assay type: in vivo
Protocol: Wild-type and ApoE-null mice were treated with vehicle only (a, c) or 1 mg/kg dynasore (b, d) every two days for 8 weeks. The coronary arteries were removed from the animals and subjected to histological analysis by H & E staining (A) and indirect immunofluorescent staining for TβR-II(B). The asterisk (*) indicates the location of the lumen in coronary arteries. The arrow indicates the immunofluorescent staining of TβR-II in the aortic endothelium.
as §1
However, no TβR-II staining was found in the aortic endothelium and smooth muscle of coronary arteries in ApoE-null mice treated with vehicle only (FIG. 4Bc).

[2] = test system: TGF-β1-stimulated Smad2 phosphorylation in Mv1Lu cells; test: TGF-β1-stimulated Smad2 phosphorylation, quantitative Western blot (P-Smad2/Smad2); assay type: cell-based; conditions: several concentrations of the inhibitors, 100 pM TGF-β1 for 30 min
Protocol: (A-I, K) Cells were pretreated with 10 mg/ml β-CD (A, K), 20 LM MDC (B), 40 μM monensin (C), 20 μM TFP (D) and 0.45 M sucrose (K) or several concentrations (as indicated) of β-CD (E), TFP (F), monensin (G), chloroquine (H), dynasore (I), at 37° C. for 1 h. The cells were then stimulated with vehicle only or […] TGF-β1 (A to I) or several concentrations (as indicated) of TGF-β1 (K). After several time periods, as indicated, at 37° C., cell lysates were analysed by 7.5% SDS PAGE followed by Western blot analysis using antibodies to P-Smad2 and Smad2 and chemiluminescence development (a or top) and quantitation by densitometry (b or bottom). The relative level of P-Smad2 was expressed as arbitrary units (A.U.) (A, B, C, D, K) (b). The relative level of P-Smad2 in cells treated with TGF-β alone was taken as 100% of control (E to I, bottom). The data shown is representative of 3 independent experiments. (J) Cells were pretreated with 10 mg/ml β-CD (c,d) at 37° C. for 1 h. The cells were then stimulated with vehicle only (a) or with 100 pM TGF-β (b,d). After 30 min at 37° C. the cells were fixed and subjected to indirect immunofluorescent staining using antibody to P-Smad2. The magnification is 200×. The data shown is representative of 3 independent experiments.
If TGF-β-induced signaling occurs in endosomes, as reported previously^6-15, inhibitors of clathrin-dependent endocytosis would be expected to attenuate TGF-β-stimulated signaling such as Smad2 phosphorylation and nuclear colocalization^4,5. To test this, Mv1Lu cells were pretreated with vehicle only or with clathrin-dependent endocytosis inhibitors at 37° C. for 30 min and then treated with or without 100 pM TGF-β1. After several time periods, the relative levels of P-Smad2 in treated and stimulated cells were analyzed by quantitative Western blot analysis using antibodies to P-Smad2 and Smad2. […] After stimulation of cells with TGF-β1 for 60 min, β-CD, TFP, MDC and monensin enhanced TGF-β1-stimulated Smad2 phosphorylation by ˜1.5-2.5 fold (FIGS. 1Ab, 1Bb, 1Cb, and 1Db). To further characterize the effects of these inhibitors on Smad2 phosphorylation, Mv1Lu cells were pretreated with vehicle only or with several concentrations of the inhibitors at 37° C. for 30 min and then stimulated with 100 pM of TGF-β1. After 30 min at 37° C., cell lysates were subjected to Western blot analysis using antibodies to P-Smad2 and Smad2 followed by quantitation with densitometry. […] To determine the effect of β-CD on TGF-β1-stimulated nuclear localization of P-Smad2, Mv1Lu cells were pretreated with vehicle only or with β-CD (10 mg/ml). After 1 h at 37° C., cells were stimulated with TGF-β1 ([…]) for 30 min. The nuclear localization of P-Smad2 was then analyzed by indirect fluorescent staining.
To define the coated-pit stages that are important in TGF-β1-induced signaling, we treated Mv1Lu cells with hyperosmotic sucrose (0.45 M) or β-CD and examined TGF-β1-stimulated Smad2 phosphorylation in these cells. […] In cells stimulated with 100 pM TGF-β1, hyperosmotic sucrose attenuated Smad2 phosphorylation by ˜60% (FIG. 1Kb). On the other hand, β-CD enhanced TGF-β1-stimulated Smad2 phosphorylation at all concentrations of TGF-β1. It enhanced TGF-β1-stimulated Smad2 phosphorylation by 2-4 fold when compared with the control (treatment without β-CD) (FIGS. 1Ka and 1Kb).

[3] = test system: TβR-I and SARA at the plasma membrane in Mv1Lu cells; test: Co-localization and accumulation of TβR-I and SARA, immunofluorescent microscopy; assay type: cell-based; conditions: 20 μM TFP, 10 mg/ml β-CD, 40 μM dynasore, 200 μM chloroquine, with 100 pM TGF-β1, 30 min
Protocol: Cells were pretreated with vehicle only or 20 μM TFP, 10 mg/ml β-CD, 40 μM dynasore (Dyn) and 200 μM chloroquine (CQ) at 37° C. for 1 h. Treated cells were then stimulated with and without 100 pM TGF-β1. After 30 min at 37° C., cells were fixed and analyzed by indirect immunofluorescent staining using antibody to TβR-I (panels 1-10) and SARA (panels 11-20), DAPI (nuclear) staining was also performed (panels 21-30). Merged staining is also shown (panels 31-40). Insets indicate the co-localization and accumulation of SARA and TβR-I at the plasma membrane.
TGF-β stimulates Smad2 phosphorylation by inducing association of TβR-I and SARA^6,7 (which serves as an anchor for Smad2), binding of Smad2 to SARA, and subsequent phosphorylation of Smad2 by TβR-I in the TβR-1-SARA-Smad2 complex. If clathrin-dependent endocytosis inhibitors enhance TGF-β-induced signaling (TGF-β-stimulated Smad2 phosphorylation) by increasing accumulation of TβR-I/TβR-II complexes at the coated pits, they should promote co-localization and accumulation of TβR-I and SARA at the plasma membrane. To test this, Mv1Lu cells were stimulated with 100 pM TGF-β1. After 30 min at 37° C., […] analyzed by immunofluorescent microscopy using antibodies to TβR-I and SARA. […] This is consistent with the previous report that TGF-β enhances TGF-β receptor internalization^16.

O=C(N/N=C/c1ccc(O)c(O)c1)c1cc2ccccc2cc1O [dynasore]
enhancement of TGF-β-stimulated expression of PAI-1 [1]: 4-5 fold | morphology of the coronary arteries (wild-type mice; dynasore 1 mg/kg every two days for 8 weeks, H & E staining): normal morphology | macroscopic or microscopic abnormality in the liver, heart, lung and kidney (wild-type mice; dynasore 1 mg/kg intraperitoneal every 2 days for 8 weeks): no apparent macroscopic or microscopic abnormality has been detected | concentration dependence of the effect on TGF-β1-stimulated Smad2 phosphorylation [2]: enhanced TGF-β1-stimulated Smad2 phosphorylation in a concentration-dependent manner | co-localization and accumulation of TβR-I and SARA at the plasma membrane, co-treatment with TGF-β1 [3]: promoted co-localization and accumulation of TβR-I and SARA at the plasma membrane
